Reference: patent US8608961B2, “Method for affinity chromatography of antithrombin III” (Aventis Pharma S.A., priority 2005, dated 2013)

System: factor Xa
Test: anti-Xa activity of fractions separated by ATIII affinity chromatography
Assay type: biochemical
Conditions: fractions of LMWH (hexasaccharides) separated on ATIII affinity column 1 (protection: enoxaparin) or column 2 (protection: heparin); hexasaccharide for comparison
Source text: The composition of the elution fractions may then be analyzed according to methods well known to those skilled in the art. Thus, if the fractions analyzed comprise oligosaccharides, those skilled in the art may use the analytical methods described in the prior art: for example and in a nonlimiting manner, capillary electrophoresis, MALDI-TOF mass spectrophotometry, high performance liquid chromatography. Those skilled in the art may also use a biological assay, such as the factor Xa inhibition assay.
In order to corroborate the structural analysis, the anti-Xa activities of the fractions having affinity and not having affinity, separated in column 1 (protection: enoxaparin), were determined.

ΔUA-(1→4)α-GlcNAc(6S)-(1→4)β-GlcA-(1→4)α-GlcNS(NS,3,6S)-(1→4)β-IdA2S-(1→4)α-GlcNS(NS,6S)
anti-Xa activity: 650-700 IU/mg
